The values that follow are results of earlier work, collected in patent publication US20210330725A1, “GARCINIA MANGOSTANA EXTRACT FOR PROMOTING HAIR GROWTH” (PIERRE FABRE DERMO-COSMETIQUE, priority 2018, published 2021).

The test system of this data set is hair follicles. The note with it: mice.

In the case of `C[C@@H]1CCN(C(=O)CC#N)C[C@@H]1N(C)c1ncnc2[nH]ccc12` [Tofacitinib, tofacitinib], the “effect on hair cycle of topical treatment in telogen phase” value is “rapid re-entry at the beginning of anagen phase”.
